The values below come from PMC12394750, “2H-1,4-Benzoxazin-3(4H)-one linked 1,2,3-triazole derivatives and their study on inducing DNA damage in tumor cells” (Frontiers in Pharmacology, 2025).

Some results are limits rather than exact numbers.

The subject of data set [1] is HCT116 colon cancer cells. More on the design: method as in Mohammed et al., 2022. The note with it: ref Mohammed et al., 2022; read-out: Cytotoxicity against HCT116, IC50; cited from earlier work.
Data set [2] relates to Huh-7 (hepatocellular carcinoma). As to the kind of experiment: CCK-8 cell viability / IC50, Huh-7. In kind it is cell-based, human. The note with it: 72 h; for viability at 50 µM / IC50: Homo sapiens, Huh-7; for viability at 50 µM / Activity against Huh-7 cells (in words): CCK-8, 50 μM; for IC50: CCK-8 dose-response. As to the method:
(§1) To assess the cytotoxic potential of the newly synthesized compounds c1–c20, a panel of human tumor cell lines—including Huh-7 (hepatocellular carcinoma), MCF-7 (breast cancer), and A549 (lung cancer)—was treated with each compound at a concentration of 50 μM for 72 h. Cell viability and cytotoxicity were evaluated using the CCK-8 assay.
(§2) Cells were cultured in DMEM or RPMI 1640 medium with 10% FBS and 1% penicillin/streptomycin at 37 °C and 5% CO2. A CCK-8 assay was performed with several human cancer cell lines, including A549, Huh-7, MCF-7, HCT-116, and SKOV3, according to the instructions. Cells were plated at a density of 1,000–3,000 cells per well in a 96-well plate. After 24-h incubation, cells were treated with 40 μM compounds for 48 h or 50 μM compounds for 72 h. Cell viability was measured by adding 10 μL per well of CCK-8 reagent, which was dissolved in the cell culture medium, for 1 hour. Absorbance was taken at 450 nm using a microplate reader. The IC50 values of the compounds were further determined. Cells were seeded in a 96-well plate at a density of 1 × 10^3 cells/well. After adhering overnight, cells treated with […] concentrations (10 μM, 20 μM, 40 µM, or 80 μM) were used to draw the dose–response curve, and IC50 values were calculated by GraphPad Prism software. The CCK-8 assay was performed in triplicate, and each experiment was repeated at least three times. The results were expressed as mean ± SEM, and P < 0.05 was considered statistically significant.

Data set [3] concerns MCF-7 (breast cancer). In words: CCK-8 cell viability, MCF-7. It counts as cell-based. The note with it: Homo sapiens, MCF7, 72 h. As to the method:
as §1, §2

Data set [4] deals with A549 (lung cancer). In words: CCK-8 cell viability, A549. It counts as cell-based. The note with it: Homo sapiens, 72 h. The procedure:
as §1, §2

Data set [5] in a line: CCK-8 cell viability, L02. The note with it: human, L02 normal liver cells. In kind it is cell-based.

Usually IC50 stands for the concentration needed to halve the response being measured. Regarding `COc1cc(/C=C/C(=O)c2ccc(-n3cc(CN4CCN(c5cc6c(cc5F)c(=O)c(C(=O)O)cn6C5CC5)CC4)nn3)cc2)cc(OC)c1OC` [compound 4j], the IC50 in data set [1] is 2.53 µM.
Broadly, the viability is a read-out of living cells in per cent, often relative to untreated cells. Regarding `O=C1COc2cc(NC(=O)c3cccc(-c4cn(Cc5cccc(I)c5)nn4)c3)ccc2N1` [compound c19, 3-(1-(3-iodobenzyl)-1H-1,2,3-triazol-4-yl)-N-(3-oxo-3,4-dihydro-2H-benzo[b][1,4]oxazin-7-yl)benzamide], the viability at 50 µM amounted to 28.5 ± 3.64% in data set [2], 97.2 ± 2.06% in data set [3] and 80.5 ± 3.81% in data set [4]. In data set [2], half-maximal inhibition (IC50) required 36.19 ± 0.09 µM. Moreover, in data set [5], the viability at 72 h, 50 µM stood at 103.4 ± 0.62%.
On to `N#Cc1ccccc1Cn1cc(-c2cccc(C(=O)Nc3ccc4c(c3)OCC(=O)N4)c2)nn1` [compound c7, 3-(1-(2-cyanobenzyl)-1H-1,2,3-triazol-4-yl)-N-(3-oxo-3,4-dihydro-2H-benzo[b][1,4]oxazin-7-yl)benzamide], for which the “Activity against Huh-7 cells (in words)” value in data set [2] is listed as “limited activity”. Also, the viability at 50 µM in data set [2] came out at 89.1 ± 3.02%; in data set [3] it was 89.2 ± 3.16%; in data set [4], 87.7 ± 6.4%. Also, the viability at 72 h, 50 µM in data set [5] was determined as 101 ± 3.14%.
`O=C1COc2cc(NC(=O)c3cccc(-c4cn(Cc5ccc(Br)cc5F)nn4)c3)ccc2N1` [compound c13, 3-(1-(4-bromo-2-fluorobenzyl)-1H-1,2,3-triazol-4-yl)-N-(3-oxo-3,4-dihydro-2H-benzo[b][1,4]oxazin-7-yl)benzamide]: the viability at 50 µM in data set [2] stood at 17.7 ± 1.58%; in data set [3], 98.9 ± 2.03%; in data set [4], 78.3 ± 2.72%. Moreover, the IC50 in data set [2] is > 50 µM. The viability at 72 h, 50 µM in data set [5] turned out to be 115 ± 1.35%.
For `O=C1COc2cc(NC(=O)c3cccc(-c4cn(Cc5ccc(I)cc5)nn4)c3)ccc2N1` [compound c4, 3-(1-(4-iodobenzyl)-1H-1,2,3-triazol-4-yl)-N-(3-oxo-3,4-dihydro-2H-benzo[b][1,4]oxazin-7-yl)benzamide] the same measures were 21.4 ± 4.91%, 95.9 ± 2.14%, 94 ± 1.88%, 33.21 ± 0.11 µM and 115.2 ± 0.81%.
On to `COc1cccc2c1C(=O)c1c(O)c3c(c(O)c1C2=O)C[C@@](O)(C(=O)CO)C[C@@H]3O[C@H]1C[C@H](N)[C@H](O)[C@H](C)O1` [doxorubicin], for which the concentration for half-maximal inhibition (IC50) in data set [1] is 1.22 µM.
For the molecule `O=C1COc2cc(NC(=O)c3cccc(-c4cn(Cc5c(F)cccc5F)nn4)c3)ccc2N1` [compound c10, 3-(1-(2,6-difluorobenzyl)-1H-1,2,3-triazol-4-yl)-N-(3-oxo-3,4-dihydro-2H-benzo[b][1,4]oxazin-7-yl)benzamide], the viability at 50 µM in data set [2] amounted to 24.9 ± 0.39%; in data set [3], 81.6 ± 1.46%; in data set [4], 61.1 ± 3.58%. Moreover, the IC50 in data set [2] is > 50 µM. Besides, the viability at 72 h, 50 µM in data set [5] came out at 68.5 ± 2.04%.
For `O=C1COc2cc(NC(=O)c3cccc(-c4cn(Cc5cccc(C(F)(F)F)c5)nn4)c3)ccc2N1` [compound c8, N-(3-oxo-3,4-dihydro-2H-benzo[b][1,4]oxazin-7-yl)-3-(1-(3-(trifluoromethyl)benzyl)-1H-1,2,3-triazol-4-yl)benzamide] the same measures were 13 ± 0.72%, 101 ± 4.5%, 86.1 ± 5.46%, 38.48 ± 0.24 µM and 103 ± 3.1%.
As for `O=C1COc2cc(NC(=O)c3cccc(-c4cn(Cc5c(F)cccc5Cl)nn4)c3)ccc2N1` [compound c15, 3-(1-(2-chloro-6-fluorobenzyl)-1H-1,2,3-triazol-4-yl)-N-(3-oxo-3,4-dihydro-2H-benzo[b][1,4]oxazin-7-yl)benzamide], the “Activity against Huh-7 cells (in words)” value in data set [2] is on record as “limited activity”. For the same molecule, the viability at 50 µM is 75.8 ± 2.97% in data set [2], 84.6 ± 1.32% in data set [3] and 86.5 ± 2.25% in data set [4]. Besides, the viability at 72 h, 50 µM in data set [5] is 113.7 ± 1.08%.
Consider `O=C1COc2cc(NC(=O)c3cccc(-c4cn(Cc5ccc(F)c(Cl)c5)nn4)c3)ccc2N1` [compound c9, 3-(1-(3-chloro-4-fluorobenzyl)-1H-1,2,3-triazol-4-yl)-N-(3-oxo-3,4-dihydro-2H-benzo[b][1,4]oxazin-7-yl)benzamide], for which the viability at 50 µM is 18.8 ± 0.56% in data set [2], 110 ± 2.58% in data set [3] and 86.2 ± 4.4% in data set [4]. In data set [2], this molecule registered an IC50 of 43.1 ± 2.43 µM. In data set [5], the viability at 72 h, 50 µM is 103 ± 3.98%.
Regarding `Cc1ccccc1Cn1cc(-c2cccc(C(=O)Nc3ccc4c(c3)OCC(=O)N4)c2)nn1` [compound c20, 3-(1-(2-methylbenzyl)-1H-1,2,3-triazol-4-yl)-N-(3-oxo-3,4-dihydro-2H-benzo[b][1,4]oxazin-7-yl)benzamide], the viability at 50 µM is 23.6 ± 0.25% in data set [2], 112 ± 4.59% in data set [3] and 97.85 ± 0.92% in data set [4]. Further, in data set [2], the IC50 was determined as 45.9 ± 0.5 µM. The viability at 72 h, 50 µM in data set [5] worked out at 119.1 ± 0.57%.
For `O=C1COc2cc(NC(=O)c3cccc(-c4cn(Cc5cccc(Br)c5)nn4)c3)ccc2N1` [compound c17, 3-(1-(3-bromobenzyl)-1H-1,2,3-triazol-4-yl)-N-(3-oxo-3,4-dihydro-2H-benzo[b][1,4]oxazin-7-yl)benzamide] the same measures were 19.2 ± 1.88%, 90.41 ± 0.51%, 71.3 ± 2.9%, 35.1 ± 1.84 µM and 111.7 ± 0.92%.
Turning to `O=C1COc2cc(NC(=O)c3cccc(-c4cn(Cc5ccccc5Br)nn4)c3)ccc2N1` [compound c12, 3-(1-(2-bromobenzyl)-1H-1,2,3-triazol-4-yl)-N-(3-oxo-3,4-dihydro-2H-benzo[b][1,4]oxazin-7-yl)benzamide], the “Activity against Huh-7 cells (in words)” value in data set [2] is listed as “limited activity”. Further, the viability at 50 µM in data set [2] turned out to be 86.1 ± 1.69%; in data set [3], 87.15 ± 0.55%; in data set [4], 87.7 ± 3.88%. Also, the viability at 72 h, 50 µM in data set [5] stood at 105 ± 2.71%.
For `N#Cc1ccc(F)cc1Cn1cc(-c2cccc(C(=O)Nc3ccc4c(c3)OCC(=O)N4)c2)nn1` [compound c11, 3-(1-(2-cyano-5-fluorobenzyl)-1H-1,2,3-triazol-4-yl)-N-(3-oxo-3,4-dihydro-2H-benzo[b][1,4]oxazin-7-yl)benzamide] the same measures were “limited activity”, 98 ± 1.22%, 92.96 ± 0.64%, 85.4 ± 2.84% and 111 ± 2.9%.
On to `Cc1cc(C)cc(Cn2cc(-c3cccc(C(=O)Nc4ccc5c(c4)OCC(=O)N5)c3)nn2)c1` [compound c6, 3-(1-(3,5-dimethylbenzyl)-1H-1,2,3-triazol-4-yl)-N-(3-oxo-3,4-dihydro-2H-benzo[b][1,4]oxazin-7-yl)benzamide], for which the viability at 50 µM in data set [2] is 25.6 ± 1.32%; in data set [3] it was 84.8 ± 3.5%; in data set [4] it was 81.6 ± 5.09%. Moreover, in data set [2], the IC50 was > 50 µM. Further, the viability at 72 h, 50 µM in data set [5] was 99.7 ± 2.5%.
For `O=C1COc2cc(NC(=O)c3cccc(-c4cn(Cc5cccc(Cl)c5)nn4)c3)ccc2N1` [compound c2, 3-(1-(3-chlorobenzyl)-1H-1,2,3-triazol-4-yl)-N-(3-oxo-3,4-dihydro-2H-benzo[b][1,4]oxazin-7-yl)benzamide] the same measures were 17.5 ± 1.15%, 103 ± 1.63%, 95.6 ± 2.98%, 33.4 ± 0.8 µM and 103 ± 2.36%.
`O=c1[nH]cc(F)c(=O)[nH]1` [5-fluorouracil, reference compound] returned an IC50 in data set [2] of 21 ± 6.37 µM.
As for `O=C1COc2cc(NC(=O)c3cccc(-c4cn(Cc5c(Cl)cccc5Cl)nn4)c3)ccc2N1` [compound c1, 3-(1-(2,6-dichlorobenzyl)-1H-1,2,3-triazol-4-yl)-N-(3-oxo-3,4-dihydro-2H-benzo[b][1,4]oxazin-7-yl)benzamide], the “Activity against Huh-7 cells (in words)” value in data set [2] is recorded as “limited activity”. Moreover, the values for the viability at 50 µM in data set [2], in data set [3] and in data set [4] were 83.49 ± 0.78%, 110 ± 3.84% and 97.4 ± 3.35%, respectively. In addition, the viability at 72 h, 50 µM in data set [5] was determined as 84.1 ± 1.2%.
For `O=C1COc2cc(NC(=O)c3cccc(-c4cn(Cc5ccccc5F)nn4)c3)ccc2N1` [compound c3, 3-(1-(2-fluorobenzyl)-1H-1,2,3-triazol-4-yl)-N-(3-oxo-3,4-dihydro-2H-benzo[b][1,4]oxazin-7-yl)benzamide], the viability at 50 µM worked out at 12.1 ± 0.58% in data set [2], 108.3 ± 0.68% in data set [3] and 92.2 ± 3.87% in data set [4]. The same molecule displayed an IC50 in data set [2] of 43.41 ± 0.08 µM. For the same molecule, the viability at 72 h, 50 µM in data set [5] is 101 ± 3.04%.
